Results reported in patent US11179326B2, “Short duration depot formulations” (Durect Corporation, priority 2002, dated 2021).
Counter-ions that a name gives are not always drawn.

Tests used:
[1] = Saturation concentration in de-ionized water; assay type: physicochemical; settings: DI water
Protocol: Bupivacaine hydrochloride (Sigma-Aldrich Corporation, St. Louis, MO) was dissolved in de-ionized (DI) water at a concentration of 40 mg/ml (saturation). A calculated amount of sodium hydroxide (1 N solution) was added to the solution and the pH of the final mixtures was adjusted to 10 to precipitate the BP base. The precipitated product was filtered, and further washed with DI water for at least three times. The precipitated product was dried at approximately 40° C. in vacuum for 24 h.

[2] = reported value; cited from earlier work

concentration in de-ionized water (saturation) [1]	SMILES	solubility in water [2]
40000 µg/mL	CCCCN1CCCCC1C(=O)Nc1c(C)cccc1C (centres unmarked) [Bupivacaine hydrochloride]	
	CC(=O)OCC(COC(C)=O)OC(C)=O [triacetin]	7.17 grams in 100 ml of water
